Results reported in patent US9314510B2, “Human laminin α2 chain LG3 domain and active peptides promoting cell adhesion, spreading, migration, and neurite outgrowth” (SNU R&DB Foundation, priority 2011, dated 2016).
Ends that are not written are not given here.

What was measured:
[1] = system: PC12 cells; test: Cell adhesion inhibition assay: peptide pretreatment, adhesion to rLG3-coated plates; assay type: cell-based, rat; details: PC12 cells pretreated with 500 μg/mL peptide; rLG3 25 μg/mL
Experimental: Specifically, PC12 cells were pretreated with the Ln2-LG3-P2 peptide in concentrations of 0, 0.2, 0.4, 0.6, 0.8, 1.0, or 1.2 μg/mL for 10 min at room temperature and then cultured on plates coated with rLG3 (25 μg/mL) for 1 h in serum-free medium.
PC12 cells were pretreated with 500 μg/mL of Ln2-LG3-P1, Ln2-LG3-P2, Ln2-LG3-P3, Ln2-LG3-P4, Ln2-LG3-P5 and SP (scramble peptide) (SEQ ID NO:20) for 10 min at room temperature and then cultured on plates coated with rLG3 (25 μg/mL) in serum-free medium. To observe cell adhesion, PC12 cells were incubated on the coated plates for 1 h and to observe cell spreading, PC12 cells were incubated on the coated plates for 3 h. To observe cell migration, cells were seed into the upper chamber of transwell filters coated with rLG3 (25 μg/mL) and cultured for 24 h. Cell migration was quantified by counting the number of cells that had migrated through the filter.
Specifically, PC12 cells were pretreated with Ln2-LG2-P2 (500 μg/mL) and Ln2-LG3-P2A (500 μg/mL) and then, cell adhesion was observed on plates coated with rLG3 (25 μg/mL).

[2] = system: PC12 cells; test: Cell adhesion assay on coated plates (crystal violet, absorbance 570 nm); assay type: cell-based, rat
Experimental: The cell adhesion assay was performed as described in a paper published previously by the present inventors (Kim, J. M., et al, Exp. Cell Res, 2005).
Specifically, 24-well culture plates (Nunc, Denmark) were coated with 5 μg/mL human placental laminin (Sigma-Aldrich, St. Louis, Mo.) or 25 μg/mL rLG domain proteins for 12 h at 4° C. The peptides were also coated on the plates by drying for 12 h at room temperature. The substrate-coated plates were blocked with 1% heat-inactivated bovine serum albumin (BSA) in PBS for 1 h at 37° C. and then washed with PBS.
The cells were trypsinized with trypsin/EDTA and resuspended in serum-free culture medium. The cells were added at a density of 2×10^5 cells/500 μL to each plate and incubated in serum-free culture medium for 1 h at 37° C. After incubation, unattached cells were removed by rinsing twice with PBS. The attached cells were fixed with 10% formalin for 15 min and then stained with 0.5% crystal violet for 1 h. Plates were gently washed with distilled water three times and dissolved with 2% SDS for 5 min. Absorbance was measured at 570 nm using a microplate reader (BioRad).
First, PC12 cells were cultured on plates coated with varying amounts of five kinds of Ln2-PG3 peptides and then cell adhesion was observed. The peptides were coated in concentrations ranging from 0 to 125 μg/mL on plates by drying them for 12 h at room temperature.
(§1) The present inventors compared the cellular activities of Ln2-LG3-P2 peptide to scrambled peptide (SEQ ID NO:20, NWEIRCIPGNPF) of Ln2-LG3-P2 peptide and Ln2-LG3-P1 peptide to Ln2-LG3-P5 peptide at a concentration of 62.5 μg/mL where the cell adhesion activity was the maximum. […] PC12 cells were cultured on plates which were coated in the same way for 3 h in serum-free medium and the cell spreading was observed.
(§2) Specifically, to observe cell adhesion, spreading, migration, and neurite outgrowth promotion, the methods described in Experimental examples <2-1> to <2-3> were used and PC12 cells were cultured on plates coated with laminin (5 μg/mL), rLG3 (25 μg/mL), and rLG3-M1 (25 μg/mL) and observed. To observe cell adhesion, PC12 cells were incubated on the coated plates for 1 h and to observe cell spreading, PC12 cells were incubated on the coated plates for 3 h. To observe cell migration, PC12 cells were incubated on the coated plates for […].
(§3) To measure cell adhesion, spreading, migration, and neurite outgrowth promotive activities of PC12 cells using the prepared synthetic peptides that are N- and C-terminal truncated or C-terminal added peptides of the Ln2-LG3-P2 peptide, peptides described in Table 1 were coated onto plates at 62.5 μg/mL and PC12 cells were seeded thereon.

[3] = system: PC12 cells; test: Summary of cell adhesion, spreading, migration and neurite outgrowth promotive effects; assay type: cell-based, rat; details: summary statement of the description
Experimental: as §3

[4] = system: PC12 cells; test: Effect of calphostin C pretreatment on cell adhesion; assay type: cell-based, rat; details: PC12 cells, 0.05, 0.1, 0.5 μM, 15 min; 1 h
Experimental: PC12 cells were pretreated with 0.05 μM, 0.1 μM, and 0.5 μM of calphostin C for 15 min at 37° C. and then incubated on plates coated with rLG3 or the Ln2-LG3-P2 peptide for 1 h.

[5] = system: PC12 cells; details: at the indicated concentrations and duration of treatment
[6] = system: PC12 cells; test: Cell migration assay (transwell migration chambers); assay type: cell-based, rat; details: transwell filters coated with laminin 5 μg/mL, rLG proteins 25 μg/mL or peptides 62.5 μg/mL, 24 h
Experimental: Cell migration assays were performed using transwell migration chambers of 8 μm in pore size (Corning Inc., NY) as described in a paper published previously by the present inventors (Kim, J. M., Min, S. K., Kim, H., Kang, H. K., Jung, S. Y., Lee, S. H., Choi, Y., Roh, S., Jeong, D., and Min, B. M. (2007) Int. J. Mol. Med.).
The lower sides of transwell filters were coated with laminin (5 μg/mL) or rLG proteins (25 μg/mL) for 12 h at 4° C. The lower sides of transwell filters were blocked with 1% BSA in PBS for 1 h at 37° C. Cells were suspended at a density of 4×10^5 cells/mL in RPMI 1640 medium containing 0.5% FBS and 0.1% BSA. 100 μL of this suspension was seeded in the upper chamber of the transwell filter. Cells were allowed to migrate for 24 h at 37° C. and then fixed with 10% formalin for 15 min and stained with 0.5% crystal violet. Non-migrated cells in the upper chamber of transwell filters were removed with a cotton swab, viewed under a light microscope, and counted.
as §2

[7] = system: PC12 cells; test: Neurite outgrowth assay; assay type: cell-based, rat; details: PC12 cells on coated plates, serum-free, 24 h + 72 h
Experimental: Laminin, rLG domain protein, and the peptide were coated onto plates and cells were seeded on the plates in serum-free medium and incubated for 24 h. After changing with serum-free medium again, cells were further cultured for 72 h and neurite outgrowth was examined.

[8] = system: PC12 cells; test: Inhibition of cell adhesion to laminin by rLG3 / rLG3-M1 pretreatment; assay type: cell-based, rat; details: PC12 cells pretreated with 250 μg/mL; laminin 5 μg/mL
Experimental: In addition, PC12 cells were pretreated with rLG3 (250 or 500 μg/mL) or vehicle (phosphate buffer, pH 3.0) for 30 min and then seeded on plates coated with laminin (5 μg/mL) for 30 min in serum-free medium and cell adhesion was observed.

[9] = system: PC12 cells; test: Cell spreading assay on coated plates (cell surface area); assay type: cell-based, rat; details: 3 h, laminin 5 μg/mL, rLG proteins 25 μg/mL, peptides 62.5 μg/mL
Experimental: To determine cell spreading assays, the cells cultured on plates coated with each rLG domain protein for 1 h or 3 h in Experimental example <2-1> were fixed with 10% formalin. Then, the fixed cells were stained with 0.05% crystal violet for 1 h and plates were gently washed with PBS three times. The surface area of cells was measured with Image-Pro plus software (Version 4.5; Media Cybernetics, Silver Spring, Md.).
as §1, §2, §3

[10] = system: PC12 cells; test: Immunostaining of actin stress fibers and focal adhesions; assay type: cell-based, rat; details: PC12 cells on coated chamber slides, 3 h, serum-free
Experimental: Specifically, for immunostaining, PC12 cells were incubated on Lab-Tek chamber slides (Nalge Nunc International, Rochester, N.Y.) coated with laminin (5 μg/mL), rLG domain proteins (25 μg/mL), or Scrambled peptide (SP) (25 μg/well) in serum-free medium for 3 h at 37° C. Lab-Tek chamber slides were coated with BSA for the control. After rinsing with PBS, PC12 cells were fixed with 3.7% formalin for 20 min and permeabilized with 0.5% Triton X-100 for 5 min. PC12 cells were incubated with primary antibodies for 12 h at 4° C. The primary antibodies used were 1:500 anti-vinculin (Sigma-Aldrich 9131), or 1:300 rhodamin-phalloidin (Invitrogen R154) antibodies. After rinsing with PBS, PC12 cells were immunostained with FITC-conjugated anti-mouse IgG antibody (Jackson ImmunoResearch Laboratories, West Grove, Pa.) or rhodamin-conjugated anti-mouse IgG antibody (Santa Cruz Biotechnology) for 1 h at room temperature. After being washed three times with PBS, the stained PC12 cells were mounted and photographed using a confocal laser scanning microscope (FV300; Olympus, Japan).

[11] = system: PC12 cells; test: Effect of EDTA or MnCl2 pretreatment on cell adhesion and spreading; assay type: cell-based, rat; details: 5 mM EDTA or 1 mM MnCl2, 15 min; for cell adhesion to laminin after pretreatment / cell adhesion to rLG3 or Ln2-LG3-P2 after pretreatment: 1 h; for cell spreading to laminin after pretreatment / cell spreading to rLG3 or Ln2-LG3-P2 after pretreatment: 3 h
Experimental: PC12 cells were pretreated with either 5 mM EDTA or 1 mM MnCl2 for 15 min at 37° C. and seeded on plates coated with rLG3 or the Ln2-LG3-P2 peptide. To measure cell adhesion, PC12 cells were incubated on the coated plates for 1 h and absorbance was measured. To measure cell spreading, PC12 cells were incubated on the coated plates for 3 h and relative cell area was measured using Image-Pro Plus software.

Ln2-LG3-P2A: Ln2-LG3-P2 peptide synthesized by substituting Arg with Ala (ANIPPFEGCIWN-NH2)
inhibition of cell adhesion to rLG3 (in words) [1]: did not inhibit | cell adhesion compared to the control group Ln2-LG3-P2 ([2]; PC12 cells on plates coated with peptide (500 μg/mL, FIG. 3H)): significantly inhibited

RNIPPFEGCIWNLVINSVPMDFARPVSFKNADIGRC (RNIPPFEGCIWNLVINSVPMDFARPVSFKNADIGRC-NH2; cysteine pairing not given here) [Ln2-LG3-P2-AC2, C-terminal added Ln2-LG3-P2]
cell adhesion, spreading, migration, and neurite outgrowth promotive effects [3]: significantly excellent

PPFEGCIWN (PPFEGCIWN-NH2) [Ln2-LG3-P2-DN3, N-terminal truncated Ln2-LG3-P2]
cell adhesion, spreading, migration, and neurite outgrowth promotive effects [3]: significantly excellent

calphostin C
cell adhesion activities to laminin, rLG3, and Ln2-LG3-P2 after inhibitor pretreatment [4]: significantly inhibited in a dose-dependent manner | cell growth [5]: did not affect cell growth

RNIPPFEGCIWNLVINSVPMDFAR (RNIPPFEGCIWNLVINSVPMDFAR-NH2) [Ln2-LG3-P2-AC1, C-terminal added Ln2-LG3-P2]
cell adhesion, spreading, migration, and neurite outgrowth promotive effects [3]: significantly excellent

PFEGCIWN (PFEGCIWN-NH2) [Ln2-LG3-P2-DN4, N-terminal truncated Ln2-LG3-P2]
cell migration [6]: did not show cell migration activity

rLG3-M1: mutant rLG3 protein, Arg in the Ln2-LG3-P2 site substituted with Ala (ANIPPFEGCIWN) (rLG3-M1)
neurite outgrowth [7]: significantly reduced levels | cell migration [6]: significantly reduced levels | cell adhesion ([2]; PC12 cells on coated plates, 1 h, serum-free, laminin 5 μg/mL, rLG proteins 25 μg/mL, peptides 62.5 μg/mL (0 to 125 μg/mL in FIG. 2B)): significantly reduced levels | inhibition of cell adhesion to laminin (in words) [8]: did not inhibit | cell spreading [9]: significantly reduced levels

NWEIRCIPGNPF (NWEIRCIPGNPF-NH2) [scrambled peptide, scrambled peptide of Ln2-LG3-P2 peptide, negative control, reference compound]
cell migration [6]: entirely ineffective | actin stress fiber formation and focal adhesions [10]: did not organize actin stress fibers | cell spreading (immunostaining) [10]: no effect on spreading | cell spreading [9]: entirely ineffective

O=C(O)CN(CCN(CC(=O)O)CC(=O)O)CC(=O)O [EDTA]
cell adhesion to laminin after pretreatment [11]: completely inhibited | cell adhesion to rLG3 or Ln2-LG3-P2 after pretreatment [11]: partially inhibited | cell spreading to laminin after pretreatment [11]: completely inhibited | cell spreading to rLG3 or Ln2-LG3-P2 after pretreatment [11]: partially inhibited

[Cl][Mn][Cl] [Mn^2+, MnCl2]
cell adhesion to laminin after pretreatment [11]: significantly enhanced | cell adhesion to rLG3 or Ln2-LG3-P2 after pretreatment [11]: significantly enhanced | cell spreading to laminin after pretreatment [11]: significantly enhanced | cell spreading to rLG3 or Ln2-LG3-P2 after pretreatment [11]: significantly enhanced
